Measurements from patent publication US7652155B2, “Diamine derivative, production process therefor and antioxidant” (Nippon Soda Co., Ltd., priority 2003, dated 2010).
Counter-ions that a name gives are not always drawn. Like-named read-outs stand apart in the source and are kept apart here.

Columns and labels:
[1] = system: lipid peroxide in homogenates of brain, heart and kidneys; experiment: Tissue migration: antioxidative action on lipids ex vivo after intraperitoneal administration; assay type: in vivo; conditions: Rattus norvegicus, ip, 0.5 h, male SD rats, 100 mg/kg intraperitoneally, 30 minutes after administration
Procedure: (§1) The antioxidative action on lipids in vitro of the compounds according to the present invention was evaluated in accordance with the method of Malvy et al. (Malvy C. et al.,) described in Biochemical and Biophysical Research Communications, 1980, vol. 95, pp. 734 to 737,) by measuring the lipid peroxide activity in a rat brain homogenate. Namely, the rat brain was removed followed by the addition of five volumes of an aqueous solution of phosphate buffered saline (pH 7.4) (hereinafter, abbreviated as PBS) to the brain while cooling with water, homogenizing with a Teflon homogenizer, and centrifuging for 20 minutes at 10,000 g to collect the supernatant as a brain homogenate. 500 μM cysteine, 5 μM ferrous sulfate, and 100 mM KCl were added to the resulting brain homogenate followed by incubating for 30 minutes at 37° C. and measuring the malondialdehyde that formed due to decomposition of lipid peroxide using the thiobarbituric acid method. The 50% inhibitory concentrations (hereinafter, abbreviated as IC50) of the compounds according to the present invention were then determined from the measured values.
Tissue migration of the compounds according to the present invention was evaluated by measuring the antioxidative action on lipids ex vivo. A test compound dissolved or suspended in an aqueous physiological saline solution or aqueous physiological saline solution containing 1% polyethylene hardened castor oil (Nikko Chemicals: Nikkol HCO-60) was intraperitoneally administered to male SD rats (age: 6 weeks) (purchased from Japan SLC) in groups of 3 animals each at a dose of 100 mg/kg. The animals were sacrificed by exsanguination by severing the carotid artery 30 minutes after administration followed by removing the brain, heart and kidneys. The lipid peroxide activity of homogenates of each tissue was measured using the method described in Example 4. The inhibition rates of the test compounds in each tissue were determined from the amounts of lipid peroxide formed in a control group (physiological saline dose group) and test compound groups.

[2] = system: mice administered ferrous chloride into the spinal subarachnoid cavity; experiment: Antioxidative action in vivo: abnormal behavior and mortality after ferrous chloride into the spinal subarachnoid cavity; parameters: species or system mouse; conditions: male Slc:ICR mice, 30 minutes before ferrous chloride, score after 60 minutes
Procedure: The antioxidative action in vivo of the compounds according to the present invention was evaluated according to the method described in the Journal of Medical Chemistry (J. Med. Chem., 1997, vol. 40, pp. 559 to 573) based on the inhibitory effects on abnormal behavior and mortality rate following administration of ferrous chloride into the spinal subarachnoid cavity of mice. Male Slc:ICR mice (age: 5 weeks) (purchased from Japan SLC) were used in groups of 3 to 7 animals each, and were administered 5 μl of aqueous physiological saline solution containing 50 mM ferrous chloride into the spinal column between the 5th and 6th lumbar vertebra. […] The test compounds were dissolved or suspended in an aqueous physiological saline solution or an aqueous physiological saline solution containing 1% polyethylene hardened castor oil (manufactured by Nikko Chemicals CO., LTD. under the name of NIKKOL HCO-60), and administered intraperitoneally or orally 30 minutes before the administration of ferrous chloride. The 50% inhibitory dose (hereinafter, abbreviated as ID50) of each test compound was determined from the score of a control group (physiological saline treated group) and the score of each test compound treated group.

[3] = system: lipid peroxides in retina homogenate; experiment: Retina migration: formation of lipid peroxides in retina ex vivo after oral administration; parameters: species or system rat; conditions: male SD rats, retinas removed 30 minutes later, auto-oxidized 1 hour at 37° C.
Procedure: The retina migration of the compounds according to the present invention was evaluated. The test compounds dissolved or suspended in 0.1 N aqueous hydrochloric acid solution or 1% polyethylene hardened castor oil (Nikkol HCO-60) solution were orally administered to male SD rats (age: 6 weeks) in groups of three animals each followed by removing both eyes 30 minutes later and separating the retinas while cooling with ice. The retinas were homogenized with a Polytron Microhomogenizer (NS-310E: manufactured by Niti-On Medical and Physical Instruments) in 0.1 M Tris-HCl buffer (pH 7.4) while cooling with ice to prepare 5% homogenates. The homogenates were then auto-oxidized for 1 hour at 37° C., and the amounts of lipid peroxide that formed were quantified using the thiobarbituric acid method (Masugi, et al., Vitamin, 51, 21 to 29, 1977).

[4] = system: 66 kDa protein in rat retina; experiment: Inhibitory action on increases in 66 kDa protein in UV-A irradiated rat retina; assay type: in vivo; conditions: male Wistar rats, 100 mg/kg p.o. 30 minutes before UV-A (12 mW/cm^2, 30 minutes); retinas 48 hours after irradiation; N = 3
Procedure: The inhibitory action of the compound according to the present invention on increases in 66 kDa protein in rat retina irradiated with UV light was evaluated. The test compound was dissolved or suspended in 0.1 N aqueous hydrochloric acid solution or 1% polyethylene hardened castor oil (Nikkol HCO-60) and orally administered to male Wistar rats (age: 7-9 weeks) followed 30 minutes later by irradiation of the right eye with UV-A (12 mW/cm^2) for 30 minutes using a UV spot light source. In addition, the left eye was not irradiated and used as a control. The rats were housed in an environment blocked from interior light both during UV-A irradiation and for 2 hours before and after irradiation. The retinas were separated 48 hours after irradiation and 5% homogenates were prepared using the same method as described in Example 4. Changes in retina protein were determined by SDS-polyacrylamide gel electrophoresis in accordance with the method of Lammli (Nature, […], 680 to 685, 1970). […] Subsequently, the gel was decolored with a mixture of ethanol, acetic acid, and water (25:8:65) and the 66 kDa protein following electrophoresis was analyzed by densitrography. The amount of protein in the samples was determined using the Lowry method.

5-lipoxygenase (5-LO) = target: T1, 5-lipoxygenase (5-LO) (Homo sapiens, UniProt P09917); experiment: 5-LO inhibitory activity (leucotriene B4 formation in human peripheral blood mononuclear cells, A23187); assay type: cell-based; conditions: 30 μM A23187, leucotriene B4, read-out: Lipoxygenase inhibitory action 50% inhibitory concentration (IC50), 5-LO
T1 construct: human peripheral blood mononuclear cells; endogenous in cells; host or cells: human peripheral blood mononuclear cells
T1 sequence (P09917 1-674): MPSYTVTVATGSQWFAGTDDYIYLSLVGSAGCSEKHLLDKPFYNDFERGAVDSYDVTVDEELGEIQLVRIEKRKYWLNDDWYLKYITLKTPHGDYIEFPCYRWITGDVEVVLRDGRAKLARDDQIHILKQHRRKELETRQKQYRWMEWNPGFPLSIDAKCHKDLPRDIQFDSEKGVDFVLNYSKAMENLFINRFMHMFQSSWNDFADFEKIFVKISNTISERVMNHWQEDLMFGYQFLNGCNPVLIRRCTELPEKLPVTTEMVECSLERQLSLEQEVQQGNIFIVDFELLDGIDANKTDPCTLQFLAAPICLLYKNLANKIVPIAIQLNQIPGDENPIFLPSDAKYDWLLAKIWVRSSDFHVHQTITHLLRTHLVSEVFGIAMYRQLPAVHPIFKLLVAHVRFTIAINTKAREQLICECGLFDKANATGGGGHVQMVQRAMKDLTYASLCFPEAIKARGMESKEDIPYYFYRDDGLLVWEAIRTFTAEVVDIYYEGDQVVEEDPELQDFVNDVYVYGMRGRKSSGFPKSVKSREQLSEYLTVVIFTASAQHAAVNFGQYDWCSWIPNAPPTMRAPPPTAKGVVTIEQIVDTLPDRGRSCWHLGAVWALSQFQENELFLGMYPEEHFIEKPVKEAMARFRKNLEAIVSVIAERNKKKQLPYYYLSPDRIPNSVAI
Procedure: 5-LO inhibitory activity was measured using a variation of the method of Carter et al. (Carter G. W. et al., J. Pharmacol. Exp. Ther., 256, 929 to 937, 1991). Namely, after pre-incubating (37° C., 15 minutes) in Hank's solution human peripheral blood mononuclear cells and a test compound dissolved in DMSO (final concentration: 1%), 30 μM A23187 was added and the resulting solution was additionally incubated (37° C., 30 minutes). The resulting leucotriene B4 that formed was quantified by enzyme immunoassay, and the 50% formation inhibitory concentration (μM) of the test compound with respect to 5-LO was calculated from that value.

15-lipoxygenase (15-LO) = target: T2, 15-lipoxygenase (15-LO) (Oryctolagus cuniculus, UniProt P12530); experiment: 15-LO inhibitory activity (15-LO from rabbit reticulocytes, linoleic acid); assay type: biochemical; conditions: 256 μM linoleic acid, 4° C., read-out: Lipoxygenase inhibitory action 50% inhibitory concentration (IC50), 15-LO
T2 construct: 15-LO obtained from rabbit reticulocytes; from tissue; host or cells: rabbit reticulocytes
T2 sequence (P12530 1-663): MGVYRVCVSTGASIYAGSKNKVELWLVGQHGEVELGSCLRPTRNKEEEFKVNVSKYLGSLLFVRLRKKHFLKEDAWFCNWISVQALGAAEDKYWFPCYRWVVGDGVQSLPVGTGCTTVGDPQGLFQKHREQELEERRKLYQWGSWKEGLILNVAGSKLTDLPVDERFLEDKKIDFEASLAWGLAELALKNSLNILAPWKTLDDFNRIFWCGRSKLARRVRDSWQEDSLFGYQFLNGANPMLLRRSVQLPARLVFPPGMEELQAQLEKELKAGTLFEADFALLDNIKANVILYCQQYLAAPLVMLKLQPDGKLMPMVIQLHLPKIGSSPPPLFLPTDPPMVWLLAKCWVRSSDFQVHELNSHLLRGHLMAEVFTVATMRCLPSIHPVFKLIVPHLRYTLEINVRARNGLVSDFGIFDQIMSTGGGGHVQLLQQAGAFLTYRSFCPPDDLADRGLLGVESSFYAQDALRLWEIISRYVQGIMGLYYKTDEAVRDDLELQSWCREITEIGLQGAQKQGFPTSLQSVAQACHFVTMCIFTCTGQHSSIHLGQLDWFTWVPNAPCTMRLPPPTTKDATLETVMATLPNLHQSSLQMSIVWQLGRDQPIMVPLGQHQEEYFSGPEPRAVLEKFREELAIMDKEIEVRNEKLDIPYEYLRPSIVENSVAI
Procedure: 15-LO inhibitory activity was measured using a variation of the method of Auerbach et al. (Auerbach B. J. et al., Anal. Biochem., 201, 375 to 380, 1992). Namely, after pre-incubating (4° C., 15 minutes) in phosphate buffer (pH 7.4) 15-LO obtained from rabbit reticulocytes and a test compound dissolved in DMSO (final concentration: 1%), 256 μM linoleic acid was added and the resulting solution was additionally incubated (4° C., 10 minutes). The resulting 15-HETE that formed was quantified by spectrophotometry (OD660 nm), and the 50% formation inhibitory concentration (μM) of the test compound with respect to 15-LO was calculated from that value.

[5] = Acute oral toxicity in mice; conditions: mouse, in vivo; male mice, single oral dose, observed for 7 days
Excerpt: A single dose of the test compounds according to the present invention was orally administered to male mice followed by observing for 7 days to determine the mortality rate. The compound indicated below was used for Control Drug 3.

[6] = system: lipid peroxide in rat brain homogenate; experiment: Antioxidative action on lipids in vitro (lipid peroxide activity in rat brain homogenate, thiobarbituric acid method); assay type: biochemical; conditions: 500 μM cysteine, 5 μM ferrous sulfate, 100 mM KCl, 30 minutes at 37° C., malondialdehyde, read-out: 50% inhibitory concentration of anti-lipid peroxide action in vitro (IC50)
Procedure: as §1

[7] = brain homogenate, read-out: Inhibition rate of ex vivo anti-lipid peroxide action, Brain
[8] = heart homogenate, read-out: Inhibition rate of ex vivo anti-lipid peroxide action, Heart
[9] = kidney homogenate, read-out: Inhibition rate of ex vivo anti-lipid peroxide action, Kidney

Cc1c(C)c2c(c(CN)c1N)CC(C)(C)O2 [Compound No. 1]
inhibition at 100 mg/kg [1, 7]: 93%
inhibition at 100 mg/kg [1, 8]: 81%
inhibition at 100 mg/kg [1, 9]: 83%
Antioxidative action in vivo 50% inhibitory dose (ID50), Intraperitoneal administration [2]: 1.8 mg/kg
Antioxidative action in vivo 50% inhibitory dose (ID50), Oral administration [2]: 6 mg/kg
Inhibitory effect on formation of lipid peroxides in retina ex vivo 30% inhibitory concentration (ID30, oral administration) [3]: 16 mg/kg
Ratio of 66 kDa protein in UV-irradiated rat retina (right eye: irradiated/left eye: non-irradiated) [4]: 1.45
IC50 (5-lipoxygenase (5-LO)): > 10000 nM
IC50 (15-lipoxygenase (15-LO)): 3740 nM
LD50 at 7 days [5]: > 1000 mg/kg

Cc1c(C)c2c(c(CN)c1N)CCC(C)(C)O2 [Compound No. 2, 2,2,7,8-tetramethyl-5-aminomethyl-6-aminochroman•-dihydrochloride]
IC50 [6]: 340 nM
inhibition at 100 mg/kg [1, 7]: 98%
inhibition at 100 mg/kg [1, 8]: 96%
inhibition at 100 mg/kg [1, 9]: 97%
Antioxidative action in vivo 50% inhibitory dose (ID50), Intraperitoneal administration [2]: 2.6 mg/kg
Antioxidative action in vivo 50% inhibitory dose (ID50), Oral administration [2]: 12 mg/kg
Inhibitory effect on formation of lipid peroxides in retina ex vivo 30% inhibitory concentration (ID30, oral administration) [3]: 6.9 mg/kg
LD50 at 7 days [5]: > 1000 mg/kg

Cc1c(C)c2c(c(C)c1N)CC(C)(CN1CCC(c3ccccc3)CC1)O2 (centres unmarked) [Control Drug 2, reference compound]
IC50 (5-lipoxygenase (5-LO)): > 10000 nM
LD50 at 7 days [5]: < 300 mg/kg

Cc1c(C)c2c(c(N)c1N)CC(C)(C)O2 [Control drug 1, reference compound]
IC50 [6]: 1400 nM
inhibition at 100 mg/kg [1, 7]: 94%
inhibition at 100 mg/kg [1, 8]: 84%
inhibition at 100 mg/kg [1, 9]: 87%
Antioxidative action in vivo 50% inhibitory dose (ID50), Intraperitoneal administration [2]: >30 mg/kg
Antioxidative action in vivo 50% inhibitory dose (ID50), Oral administration [2]: >30 mg/kg
